Data taken from PubChem BioAssay AID1919003 (Molecular Pharmacology Branch, DTP, NCI, 2023).

System: 786-0 complex spheroids with HUVEC/MSC, growth % test/control
Assay: Anticancer human tumor 786-0 cell line growth inhibition [AhR];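 further: compound exposure lasted seven days before the read-out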
Conditions: for IC50: curve of first compound; for viability, T/C: stronger effect = lower value
Excerpt: Multicellular complex tumor spheroid response to aryl hydrocarbon receptor antagonists in combination with a variety of drugs and investigational agents in selected tumor cell lines
The current study was undertaken to assess response to aryl hydrocarbon receptor antagonists in combination with standard-of-care drugs and investigational agents in solid tumor complex spheroid models. Complex spheroids include a stromal component modeled by human endothelial cells (HUVEC) and fibroblasts modeled by human mesenchymal stem cells (MSCs). The concentration ranges selected for each drug and investigational agent were based upon clinically achievable concentrations if the clinical Cmax of the agent was known.
Compounds. The drugs and investigational agents: BAY 2416964 (NSC825713), GNF351 (NSC835774), CH-223191 (NSC835775), CPI-455 (NSC825282), aza-TdCyd (NSC777586), decitabine (NSC127716), belinostat (NSC758774), entinostat (NSC756642), pevonedistat (NSC761192), tazemetostat (NSC777109), talazoparib (NSC765396), olaparib (NSC753686), selinexor (NSC780203), nedisertib (M3814, NSC802822), bortezomib (NSC756655), venetoclax (NSC766270), doxorubicin (NSC123127), elimusertib (BAY189344, NSC800525), ceralasertib (AZD6738, NSC777638), TAK-243 (NSC785004), alisertib (NSC759677), etoposide (NSC141540), topotecan (NSC609699), eribulin (NSC707389), gemcitabine (NSC613327), carboplatin (NSC241240), cisplatin (NSC119875), and SN-38 (NSC673596) were obtained from the National Cancer Institute (NCI) Developmental Therapeutics Program Chemical Repository (32). The FDA-approved anticancer drug set is available from the Developmental Therapeutics Program at https://dtp.cancer.gov/organization/dscb/obtaining/available plates.htm. […] The stock solutions were prepared in dimethyl sulfoxide (DMSO, Sigma-Aldrich, St. Louis, MO, cat. D2650), except for the platinum compounds which were prepared in saline (Quality Biological, Gaithersburg, MD, cat. 114-055-101), at 800-fold the tested concentration and stored at -70 degrees C prior to their use. All drugs and investigational agents were tested over a range starting from a high concentration at or near the clinical Cmax and decreasing in half-log increments. If the clinical Cmax for an agent had not been determined, the highest concentration tested was 10 microM (Table 1).
Cell Culture. All cells were maintained in an incubator at 37 degrees C and 5% CO2 with 95% humidity. The PDC lines were cultured according to standard operating procedures established by the NCI PDMR (https://pdmr.cancer.gov). Briefly, all PDCs were thawed and cultured in Matrigel-coated flasks prepared with a working solution of 1X Ham's F-12 nutrient mix, without supplementation (Invitrogen, Waltham, MA, cat. 11765054), 100 U/mL penicillin-streptomycin (Invitrogen, cat. 15140122), and 2.5% Matrigel (Corning Inc., Corning, NY, cat. 354248) for the first three passages. All PDCs were cultured in complete DMEM/F-12 media containing advanced DMEM/F-12 (Invitrogen, cat. 12634028), 4.9% defined fetal bovine serum, heat inactivated (HyClone Laboratories Inc., Logan, UT, cat. SH30070.03HI), 389 ng/mL hydrocortisone (Sigma-Aldrich, cat. H4001), 9.7 ng/mL human EGF recombinant protein (Invitrogen, cat. PHG0313), 23.4 microg/mL adenine (Sigma-Aldrich, cat. A2786), 97.3 U/mL penicillin-streptomycin (Invitrogen, cat. 15140122), 1.9 mM L-glutamine (Invitrogen, cat. 25030081), and 9.7 microM Y-27632 dihydrochloride (Tocris Bioscience, Bristol, United Kingdom, cat. 1254). The PDCs were cultured in complete DMEM/F12 media without 10 microM Y-27632 dihydrochloride for at least two passages prior to the screen. The established cell lines NCI-H1341 and […] were cultured in DMEM/F-12, HEPES (Invitrogen, cat. 11330032), 5% defined fetal bovine serum (HyClone Laboratories Inc., cat. SH30070.03), ITS premix universal culture supplement [insulin (5 microg/mL), transferrin (5 microg/mL), and selenious acid (5 ng/mL)] […]

[1] = second compound 0.1 µM, first compound 0.000949 µM
[2] = second compound 0.1 µM, first compound 0.003 µM
[3] = second compound 0.1 µM, first compound 0.00949 µM
[4] = second compound 0.1 µM, first compound 0.03 µM
[5] = second compound 0.1 µM, first compound 0.0949 µM
[6] = second compound 0.1 µM, first compound 0.3 µM
[7] = second compound 0.316 µM, first compound 0.000949 µM
[8] = second compound 0.316 µM, first compound 0.003 µM
[9] = second compound 0.316 µM, first compound 0.00949 µM
[10] = second compound 0.316 µM, first compound 0.03 µM
[11] = second compound 0.316 µM, first compound 0.0949 µM
[12] = second compound 0.316 µM, first compound 0.3 µM
[13] = second compound 1 µM, first compound 0.000949 µM
[14] = second compound 1 µM, first compound 0.003 µM
[15] = second compound 1 µM, first compound 0.00949 µM
[16] = second compound 1 µM, first compound 0.03 µM
[17] = second compound 1 µM, first compound 0.0949 µM
[18] = second compound 1 µM, first compound 0.3 µM
[19] = second compound 3.16 µM, first compound 0.000949 µM
[20] = second compound 3.16 µM, first compound 0.003 µM
[21] = second compound 3.16 µM, first compound 0.00949 µM
[22] = second compound 3.16 µM, first compound 0.03 µM
[23] = second compound 3.16 µM, first compound 0.0949 µM
[24] = second compound 3.16 µM, first compound 0.3 µM
[25] = second compound 10 µM, first compound 0.000949 µM
[26] = second compound 10 µM, first compound 0.003 µM
[27] = second compound 10 µM, first compound 0.00949 µM
[28] = second compound 10 µM, first compound 0.03 µM
[29] = second compound 10 µM, first compound 0.0949 µM
[30] = second compound 10 µM, first compound 0.3 µM

CC(C)CC(NC(=O)C(Cc1ccccc1)NC(=O)c1cnccn1)B(O)O (stereo not given) + Cc1cncc(-c2nc(NCCc3c[nH]c4ccccc34)c3ncn(C(C)C)c3n2)c1 gave an IC50 (second compound 0.1 µM) of 17.8 nM, an IC50 (second compound 0.316 µM) of 18.6 nM and an IC50 (second compound 1 µM) of 17 nM. For the same molecule, the IC50 (second compound 3.16 µM) was 8.46 nM, the IC50 (second compound 10 µM) was < 0.949 nM and the viability, T/C [1] was 136%. The viability, T/C [2] was 119%, the viability, T/C [3] was 103% and the viability, T/C [4] was 5.33%. For the same molecule, the viability, T/C [5] was 0.52%, the viability, T/C [6] was 0.46% and the viability, T/C [7] was 127%. It also gave a viability, T/C [8] of 120%, a viability, T/C [9] of 118% and a viability, T/C [10] of 3.15%. The viability, T/C [11] was 0.85%, the viability, T/C [12] was 0.37% and the viability, T/C [13] was 102%. The viability, T/C [14] was 110%, the viability, T/C [15] was 96.9% and the viability, T/C [16] was 4.16%. For the same molecule, the viability, T/C [17] was 0.6%, the viability, T/C [18] was 0.7% and the viability, T/C [19] was 70.7%. For the same molecule, the viability, T/C [20] was 69.3%, the viability, T/C [21] was 47.8% and the viability, T/C [22] was 1.63%. For the same molecule, the viability, T/C [23] was 0.28%, the viability, T/C [24] was 0.43% and the viability, T/C [25] was 10.2%. It also gave a viability, T/C [26] of 16%, a viability, T/C [27] of 2.59% and a viability, T/C [28] of 0.18%. For the same molecule, the viability, T/C [29] was 0.17% and the viability, T/C [30] was 0.24%.

Nc1ncn(C2CC(O)C(CO)S2)c(=O)n1 (stereo not given) + Cc1cncc(-c2nc(NCCc3c[nH]c4ccccc34)c3ncn(C(C)C)c3n2)c1 was tested, and the IC50 (second compound 0.1 µM) was > 300 nM, the IC50 (second compound 0.316 µM) was > 300 nM and the IC50 (second compound 1 µM) was > 300 nM. The IC50 (second compound 3.16 µM) was 22.3 nM, the IC50 (second compound 10 µM) was < 0.949 nM and the viability, T/C [1] was 120%. For the same molecule, the viability, T/C [2] was 123%, the viability, T/C [3] was 122% and the viability, T/C [4] was 118%. For the same molecule, the viability, T/C [5] was 94.2%, the viability, T/C [6] was 82.7% and the viability, T/C [7] was 121%. For the same molecule, the viability, T/C [8] was 117%, the viability, T/C [9] was 121% and the viability, T/C [10] was 110%. The viability, T/C [11] was 94.7%, the viability, T/C [12] was 79.3% and the viability, T/C [13] was 101%. For the same molecule, the viability, T/C [14] was 102%, the viability, T/C [15] was 94.3% and the viability, T/C [16] was 90.3%. The viability, T/C [17] was 61.1%, the viability, T/C [18] was 57.6% and the viability, T/C [19] was 69.2%. For the same molecule, the viability, T/C [20] was 65.2%, the viability, T/C [21] was 59.8% and the viability, T/C [22] was 46.6%. The viability, T/C [23] was 40.4%, the viability, T/C [24] was 39.9% and the viability, T/C [25] was 17.2%. It also gave a viability, T/C [26] of 14.9%, a viability, T/C [27] of 22% and a viability, T/C [28] of 15.6%. For the same molecule, the viability, T/C [29] was 10.9% and the viability, T/C [30] was 9.94%.

With NS(=O)(=O)OCC1CC(n2ccc3c(NC4CCc5ccccc54)ncnc32)CC1O (stereo not given) + Cc1cncc(-c2nc(NCCc3c[nH]c4ccccc34)c3ncn(C(C)C)c3n2)c1 the IC50 (second compound 0.1 µM) was 639 nM, the IC50 (second compound 0.316 µM) was 649 nM and the IC50 (second compound 1 µM) was 581 nM. The IC50 (second compound 3.16 µM) was 306 nM, the IC50 (second compound 10 µM) was < 31.6 nM and the viability, T/C (second compound 0.1 µM, first compound 0.0316 µM) was 96.8%. It also gave a viability, T/C (second compound 0.1 µM, first compound 0.1 µM) of 84.5%, a viability, T/C (second compound 0.1 µM, first compound 0.316 µM) of 74.8% and a viability, T/C (second compound 0.1 µM, first compound 1 µM) of 35%. It also gave a viability, T/C (second compound 0.1 µM, first compound 3.16 µM) of 10.5%, a viability, T/C (second compound 0.1 µM, first compound 10 µM) of 5.21% and a viability, T/C (second compound 0.316 µM, first compound 0.0316 µM) of 100%. It also gave a viability, T/C (second compound 0.316 µM, first compound 0.1 µM) of 82.9%, a viability, T/C (second compound 0.316 µM, first compound 0.316 µM) of 75.8% and a viability, T/C (second compound 0.316 µM, first compound 1 µM) of 36%. For the same molecule, the viability, T/C (second compound 0.316 µM, first compound 3.16 µM) was 8.3%, the viability, T/C (second compound 0.316 µM, first compound 10 µM) was 4.21% and the viability, T/C (second compound 1 µM, first compound 0.0316 µM) was 103%. For the same molecule, the viability, T/C (second compound 1 µM, first compound 0.1 µM) was 83.6%, the viability, T/C (second compound 1 µM, first compound 0.316 µM) was 74.2% and the viability, T/C (second compound 1 µM, first compound 1 µM) was 30.7%. It also gave a viability, T/C (second compound 1 µM, first compound 3.16 µM) of 8.16%, a viability, T/C (second compound 1 µM, first compound 10 µM) of 5.53% and a viability, T/C (second compound 3.16 µM, first compound 0.0316 µM) of 71.9%. For the same molecule, the viability, T/C (second compound 3.16 µM, first compound 0.1 µM) was 66%, the viability, T/C (second compound 3.16 µM, first compound 0.316 µM) was 50.1% and the viability, T/C (second compound 3.16 µM, first compound 1 µM) was 16.5%. It also gave a viability, T/C (second compound 3.16 µM, first compound 3.16 µM) of 3.65%, a viability, T/C (second compound 3.16 µM, first compound 10 µM) of 2.28% and a viability, T/C (second compound 10 µM, first compound 0.0316 µM) of 6.13%. For the same molecule, the viability, T/C (second compound 10 µM, first compound 0.1 µM) was 6.79%, the viability, T/C (second compound 10 µM, first compound 0.316 µM) was 1.4% and the viability, T/C (second compound 10 µM, first compound 1 µM) was 1.01%. It also gave a viability, T/C (second compound 10 µM, first compound 3.16 µM) of 0.49% and a viability, T/C (second compound 10 µM, first compound 10 µM) of 0.45%.
